Columns and labels:
[1] = test system: LN229 xenografts; assay: Subcutaneous LN229 xenografts in SCID mice; assay type: in vivo
Text: Protein levels were quantified by Western analyses (inset; representative immunoblots of YAP and actin levels from tumors from the indicated tumor treatment groups), and normalized to actin levels of harvested tumors from mice with the corresponding treatments as indicated and described in Materials and Methods. […] Scale bar, 20 μm. […] Data are expressed as the number of positive apoptotic bodies (brown, indicated by arrows) divided by high power field (hpf; 10-12 hpf/tumor). Values are means+S.D., *, P<0.05. Scale bar, 20 μm.
Animal studies. Xenografts of LN229 cells were performed in 4-6-week-old female C.B.-17-scid (Taconic) mice as previously described (Holmes B, et al. (2016) J Biol Chem 291: 14146-14159). Tumors were harvested at autopsy for immunoblot analysis. Sections of paraffin-embedded tumors on slides were processed for immunohistochemistry as previously described (Benavides-Serrato A, et al. (2017) PLoS One 12: e0176599). For GEMM studies, double transgenic GFAP-EGFRvIII; GFAP-Cre/Rictor^loxP/loxP mice as previously described were used (Bashir T, et al. (2012) PLoS One 7: e47741). Determinations of blood plasma and brain concentrations of NSC682769 following IV administration were performed in C57/BL6 mice.
NSC682769 inhibits GBM tumor growth in xenografted mice. To examine the effects of NSC682769 in vivo, the ability of the compound to inhibit the growth of LN229 xenografted tumors implanted subcutaneously in SCID mice was tested. Following implantation, when tumors reached ˜200 mm^3, mice were randomized into treatment groups receiving vehicle, 5 mg/kg/d and 20 mg/kg/d of NSC682769. […] The relative expression level of YAP was reduced in harvested tumors from NSC682769 treated animals (5 mg/kg; 20 mg/kg) as compared to vehicle treated animals consistent with the observed effects of the inhibitor in vitro (FIG. 5D; see also FIG. 3). Expression of the YAP-dependent genes CTGF and Cyr61 was reduced in inhibitor treated groups relative to vehicle (FIG. 5E).

[2] = test system: CTGF & Cyr61 expression; assay: Real time RT-PCR of YAP-target genes CTGF and Cyr61 in GBM cells; assay type: cell-based, human; details: LN229 and GBM39 cells, 18 h
Protocol: Levels of total YAP were determined via ELISA. […] Immunoprecipitates were immunoblotted for the indicated proteins. […] Cells were treated with the indicated concentrations of inhibitor for 18 h and mRNA extracted for real time RT-PCR analyses. Measurements were performed in quadruplicate and means and+S.D. are shown. […] Cells were treated with (+) or without (−) NSC682769 (100 nM, 18 h) and harvested and separated into cytoplasmic and nuclear cellular fractions. Cytoplasmic versus nuclear material was subsequently immunoblotted for the indicated proteins. […] Values in top right corner of panels correspond to the percentage of nuclear localized YAP. […]
Protein and mRNA analyses, immunoprecipitation, in vitro bead-coupled inhibitor binding assays and HPLC analyses. […] Antigen-antibody complexes were detected using appropriate horseradish peroxidase-conjugated secondary antibodies (GE Healthcare) and enhanced chemiluminescence (Amersham ECL Prime). […] For quantitative RT-PCR, extraction of RNA was performed using Trizol® (Life Technologies). Total RNA was then quantified and integrity assessed using an Agilent 2100 Bioanalyzer (Agilent Technology). […] SYBR® Green quantitative PCR (Millipore Sigma) was performed in triplicate in 96-well optical plates on an ABI Prism 7000 Sequence Detection System (Life Technologies) according to the manufacturer's instructions. […]

COc1ccc(-c2cc(-c3ccccc3)nc3c2CC(=O)Nc2ccccc2-3)cc1OC [NSC682769]
Tumor growth delay ([1]; 5 mg/kg/d): 11 days | Tumor growth inhibition at end of dosing period ([1]; 5 mg/kg/d): 66% | Relative expression level of YAP in harvested tumors ([1]; 5 mg/kg, 20 mg/kg versus vehicle): reduced | Tumor growth delay ([1]; 20 mg/kg/d): 16 days | Tumor growth inhibition at end of dosing period ([1]; 20 mg/kg/d): 83% | Overall survival relative to vehicle ([1]; 5 and 20 mg/kg/d): markedly extended | Harvested tumor weights ([1]; both dosing regimens versus vehicle): significant reduction | Apoptosis by TUNEL staining of tumors ([1]; both dosing regimens, day 12): enhancement of apoptotic death | Ki-67 staining of harvested tumors ([1]; day 12 after start of treatment): reduction | Expression of CTGF and Cyr61 in harvested xenografts ([1]; treated groups versus vehicle): reduced | CTGF and Cyr61 transcripts [2]: downregulated

Source: patent US20240108634A1, “COMPOSITIONS AND METHODS FOR INHIBITING YAP” (The United States Government as represented by the …, priority 2021, published 2024)
